The values that follow come from ChEMBL document CHEMBL1152794, “Synthesis and biological evaluation of a small molecule library of 3rd generation multidrug resistance modulators” (Bioorg Med Chem, 2009).

Broadly, the IC50 is the concentration needed to halve the response being measured.

In this assay the target is ATP-dependent translocase ABCB1 (Homo sapiens, UniProt P08183). As to the kind of experiment: Inhibition of P-glycoprotein-mediated multidrug resistance in adriamycin-resistant human A2780/ADR cells by calcein AM assay. It is filed as cell-based.
ATP-dependent translocase ABCB1, sequence (P08183 whole entry): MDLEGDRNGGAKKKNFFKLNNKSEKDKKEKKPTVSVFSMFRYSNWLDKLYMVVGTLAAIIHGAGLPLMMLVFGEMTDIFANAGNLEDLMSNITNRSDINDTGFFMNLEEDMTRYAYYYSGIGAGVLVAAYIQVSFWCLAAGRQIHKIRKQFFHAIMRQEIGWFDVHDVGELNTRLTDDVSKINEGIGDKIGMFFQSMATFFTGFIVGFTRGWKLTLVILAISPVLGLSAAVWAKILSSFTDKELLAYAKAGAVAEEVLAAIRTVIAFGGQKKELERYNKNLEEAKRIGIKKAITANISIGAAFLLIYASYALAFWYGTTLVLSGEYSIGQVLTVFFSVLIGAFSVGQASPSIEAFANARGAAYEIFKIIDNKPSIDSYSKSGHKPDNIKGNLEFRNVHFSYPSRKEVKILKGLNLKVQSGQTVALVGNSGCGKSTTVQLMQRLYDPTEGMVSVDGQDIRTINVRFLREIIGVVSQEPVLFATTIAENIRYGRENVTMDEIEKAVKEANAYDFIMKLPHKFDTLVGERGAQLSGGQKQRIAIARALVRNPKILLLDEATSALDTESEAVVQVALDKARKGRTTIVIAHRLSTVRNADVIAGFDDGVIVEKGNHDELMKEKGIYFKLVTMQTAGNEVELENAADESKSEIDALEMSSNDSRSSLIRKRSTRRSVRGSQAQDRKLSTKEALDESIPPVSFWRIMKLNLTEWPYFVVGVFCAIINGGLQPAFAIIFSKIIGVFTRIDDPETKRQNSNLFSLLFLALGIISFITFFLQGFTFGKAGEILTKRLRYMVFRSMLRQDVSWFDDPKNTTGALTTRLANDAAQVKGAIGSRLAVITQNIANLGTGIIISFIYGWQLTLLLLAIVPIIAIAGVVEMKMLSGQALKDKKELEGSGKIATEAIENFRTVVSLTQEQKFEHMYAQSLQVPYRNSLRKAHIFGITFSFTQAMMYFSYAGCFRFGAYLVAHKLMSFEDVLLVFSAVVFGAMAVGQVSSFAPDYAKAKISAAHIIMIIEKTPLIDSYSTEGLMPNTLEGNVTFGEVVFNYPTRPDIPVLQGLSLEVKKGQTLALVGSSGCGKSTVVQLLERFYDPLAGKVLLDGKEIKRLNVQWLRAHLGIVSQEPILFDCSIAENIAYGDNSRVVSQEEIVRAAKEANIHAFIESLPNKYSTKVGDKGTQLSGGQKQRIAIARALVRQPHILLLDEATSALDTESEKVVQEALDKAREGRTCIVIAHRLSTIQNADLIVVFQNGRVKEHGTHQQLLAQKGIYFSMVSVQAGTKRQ
Turning to `COc1cc2c(cc1OC)CN(CCc1ccc(NC(=O)Nc3cccc([N+](=O)[O-])c3)cc1)CC2`, the IC50 was 0.67 µM. For `COc1cc2c(cc1OC)CN(CCc1ccc(NC(=O)c3ccccc3N)cc1)CC2`, the IC50 is 8.5 µM. Turning to `COc1cc2c(cc1OC)CN(CCc1ccc(NC(=O)Nc3ccccc3[N+](=O)[O-])cc1)CC2`, the IC50 is 0.33 µM. Consider `COc1cc2c(cc1OC)CN(CCc1ccc(NC(=O)/C=C/c3ccccc3)cc1)CC2`, for which the IC50 is 1.4 µM. The figure for `COc1cc2c(cc1OC)CN(CCc1ccc(NC(=O)c3ccc4c(c3)OCO4)cc1)CC2` is 2.1 µM; for `O=C(Nc1ccc(CCN2CCc3ccccc3C2)cc1)c1ccccc1[N+](=O)[O-]` it is 14 µM; for `COc1cc(/C=C/C(=O)Nc2ccc(CCN3CCc4cc(OC)c(OC)cc4C3)cc2)c([N+](=O)[O-])cc1OC` it is 1.5 µM.

Consider `COc1cc2c(cc1OC)CN(CCc1ccc(NC(=O)c3ccccc3[N+](=O)[O-])cc1)CC2`, for which the IC50 was 5.4 µM. Take `Nc1ccccc1NC(=O)Nc1ccc(CCN2CCc3ccccc3C2)cc1`: the IC50 was 19 µM. For `COc1cc2c(cc1OC)CN(CCc1ccc(NC(=O)c3ccccc3)cc1)CC2`, the IC50 is 4.1 µM. Turning to `COc1cc2c(cc1OC)CN(CCc1ccc(NC(=O)c3ccc([N+](=O)[O-])cc3)cc1)CC2`, the IC50 is 1.4 µM. In the case of `COc1cc2c(cc1OC)CN(CCc1ccc(NC(=O)COc3ccccc3N)cc1)CC2`, the IC50 was 3.4 µM.

For `COc1cc2c(cc1OC)CN(CCc1ccc(NC(=O)/C=C/c3ccccc3[N+](=O)[O-])cc1)CC2`, the IC50 is 1.1 µM.

In the case of `COc1cc2c(cc1OC)CN(CCc1ccc(NC(=O)c3ccc4ccccc4n3)cc1)CC2`, the IC50 is 0.85 µM.

For the molecule `COc1cc2c(cc1OC)CN(CCc1ccc(NC(=O)COc3ccccc3[N+](=O)[O-])cc1)CC2`, the IC50 was 0.22 µM. On to `Nc1ccc(C(=O)Nc2ccc(CCN3CCc4ccccc4C3)cc2)cc1`, for which the IC50 is 12 µM.

Consider `O=C(Nc1ccc(CCN2CCc3ccccc3C2)cc1)c1ccc([N+](=O)[O-])cc1`, for which the IC50 is 5.6 µM. As to `COc1cc2c(cc1OC)CN(CCc1ccc(NC(=O)COc3ccccc3)cc1)CC2`, the IC50 is 3.1 µM. In the case of `COc1cc2c(cc1OC)CN(CCc1ccc(NC(=O)c3cc(OC)c(OC)cc3NC(=O)c3cnc4ccccc4c3)cc1)CC2`, the IC50 was 0.078 µM. Consider `COc1cc2c(cc1OC)CN(CCc1ccc(NC(=O)c3cnc4ccccc4c3)cc1)CC2`, for which the IC50 is 0.57 µM. Take `COc1cc2c(cc1OC)CN(CCc1ccc(NC(=O)c3ccccc3Br)cc1)CC2`: the IC50 was 3.3 µM. As to `COc1cc2c(cc1OC)CN(CCc1ccc(NC(=O)c3ccc4ncccc4c3)cc1)CC2`, the IC50 is 0.65 µM.

With `COc1cc2c(cc1OC)CN(CCc1ccc(NC(=O)c3ccnc4ccccc34)cc1)CC2`, the IC50 is 4.7 µM.

On to `COc1cc2c(cc1OC)CN(CCc1ccc(NC(=O)c3cnc4ccccc4n3)cc1)CC2`, for which the IC50 is 0.47 µM. The figure for `COc1cc2c(cc1OC)CN(CCc1ccc(NC(=O)c3cccc(Br)c3)cc1)CC2` is 1.8 µM. In the case of `COc1cc2c(cc1OC)CN(CCc1ccc(NC(=O)c3cccnc3)cc1)CC2`, the IC50 is 4.8 µM.

`COc1cc2c(cc1OC)CN(CCc1ccc(NC(=O)/C=C/c3ccc(Cl)cc3)cc1)CC2`: the IC50 is 0.67 µM.

With `COc1cc2c(cc1OC)CN(CCc1ccc(NC(=O)Nc3ccccc3N)cc1)CC2`, the IC50 was 21 µM. Turning to `COc1cc2c(cc1OC)CN(CCc1ccc(NC(=O)Nc3cccc(N)c3)cc1)CC2`, the IC50 is 14 µM.

As to `COc1cc2c(cc1OC)CN(CCc1ccc(NC(=O)c3ccc4ccccc4c3)cc1)CC2`, the IC50 was 0.63 µM. For `O=C(Nc1ccc(CCN2CCc3ccccc3C2)cc1)Nc1ccccc1[N+](=O)[O-]` the value was 0.77 µM; for `COc1cc2c(cc1OC)CN(CCc1ccc(NC(=O)Nc3ccc(N)cc3)cc1)CC2`, 31 µM; for `COc1cc2c(cc1OC)CN(CCc1ccc(NC(=O)c3ccc(N)cc3)cc1)CC2`, 4.4 µM. Take `COc1cc2c(cc1OC)CN(CCc1ccc(NC(=O)Nc3ccc([N+](=O)[O-])cc3)cc1)CC2`: the IC50 was 1.5 µM.
